# Experimental data taken from the supplement of paper PMC11208160.
# Experiment: recombinant UMI read abundance after kanamycin selection (control-corrected) (log10(CPM+1)); higher = more efficient recombination; extreme values may be limits of the assay; sequences stand for … in AGTGCAGAGAAAATCGGCCAGTTTTCTCTGCCTGCAGTCCGCATGCCGTGGGACCCCTTGGGTTCTAACCTGTTGCCTAGATTTATGCAGCGGACTGCCTTTCTCCCAAAGTGATAAACCGG…AGGTTGGTTTCACT; site = the 11-nt donor
# Outline: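 Reported values are log10(CPM+1) from a pooled Escherichia coli screen of donor and donor-binding-loop pairs for the IS621 bridge recombinase. Selection used IPTG (0.07 mM) plus kanamycin, against unselected plating, each in two replicates. Recombinant UMIs were amplified across the donor–target junction, sequenced, converted to CPM, averaged over replicates and scaled by control-derived factors.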
# 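Note: IS621 bridge recombinase in Escherichia coli cells against a fixed T5 target plasmid.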
row,Sequence,recombinant UMI read abundance (log10)
1,AGCAAGACATGGACCGGTTTTCCCGGTAATCCGTATTTGCT (site AGCAAGACTAG),1.94
2,AGCAAGACATGGACCGGTTTTCCCGGTAATCCGTATTTGCT (site AGGAAGACTTG),0
3,AGCAAGACATGGACCGGTTTTCCCGGTAATCCGTATTTGGA (site AGCAAGACTTC),1.8
4,AGCAAGACATGGACCGGTTTTCCCGGTAATCCGTATTTGGA (site AGGAAGACTTG),0
5,AGCAAGGCATGGACCGGTTTTCCCGGTAATCCGTATTTGCT (site AGAAAGGCTAG),0
6,AGCAAGGCATGGACCGGTTTTCCCGGTAATCCGTATTTGCT (site AGCAAGGCTAG),2.61
7,AGCAAGGCATGGACCGGTTTTCCCGGTAATCCGTATTTGCT (site AGGAAGGCTAG),0.0349
8,AGCAAGGCATGGACCGGTTTTCCCGGTAATCCGTATTTGCT (site AGTAAGGCTAG),0.238
9,AGCAATCCATGGACCGGTTTTCCCGGTAATCCGTATTTGAA (site AGCAATCCTTT),1.33
10,AGCAATCCATGGACCGGTTTTCCCGGTAATCCGTATTTGAA (site CGCAATCCTTT),0
11,AGCAATCCATGGACCGGTTTTCCCGGTAATCCGTATTTGAA (site GGCAATCCTTT),0.00676
12,AGCAATCCATGGACCGGTTTTCCCGGTAATCCGTATTTGAA (site TGCAATCCTTT),0.186
13,AGCACGTCATGGACCGGTTTTCCCGGTAATCCGTATTTGAC (site AGCACGTCTGT),2.28
14,AGCAGATCATGGACCGGTTTTCCCGGTAATCCGTATTTGAA (site AGCAGATCTTT),1.77
15,AGCAGTACATGGACCGGTTTTCCCGGTAATCCGTATTTGCG (site AGCAGTACTCG),1.25
16,AGCAGTGCATGGACCGGTTTTCCCGGTAATCCGTATTTGAG (site AGCAGTGCTCT),1.93
17,AGCATTACATGGACCGGTTTTCCCGGTAATCCGTATTTGAT (site AGCATTACTAT),1.01
18,AGCATTCCATGGACCGGTTTTCCCGGTAATCCGTATTTGTC (site AGCATTCCTGA),0
19,AGCCAAGCATGGACCGGTTTTCCCGGTAATCCGTATTTGTT (site AGCCAAGCTAA),1.09
20,AGCCAAGCATGGACCGGTTTTCCCGGTAATCCGTATTTGTT (site AGCCCAGCTAA),0.0145
21,AGCCAAGCATGGACCGGTTTTCCCGGTAATCCGTATTTGTT (site AGCCGAGCTAA),0.00778
22,AGCCAAGCATGGACCGGTTTTCCCGGTAATCCGTATTTGTT (site AGCCTAGCTAA),0.0061
23,AGCCCAGCATGGACCGGTTTTCCCGGTAATCCGTATTTGGG (site AGCACAGCTCC),0.0163
24,AGCCCAGCATGGACCGGTTTTCCCGGTAATCCGTATTTGGG (site AGCCCAGCTCC),0.35
25,AGCCCAGCATGGACCGGTTTTCCCGGTAATCCGTATTTGGG (site AGCGCAGCTCC),0.0133
26,AGCCCAGCATGGACCGGTTTTCCCGGTAATCCGTATTTGGG (site AGCTCAGCTCC),0.0182

row,Sequence,recombinant UMI read abundance (log10)
1,AGCCTAACATGGACCGGTTTTCCCGGTAATCCGTATTTGCT (site AGCCTAACTAG),0
2,AGCCTACCATGGACCGGTTTTCCCGGTAATCCGTATTTGTT (site AGCCTAACTAA),0
3,AGCCTACCATGGACCGGTTTTCCCGGTAATCCGTATTTGTT (site AGCCTACCTAA),0.0133
4,AGCCTACCATGGACCGGTTTTCCCGGTAATCCGTATTTGTT (site AGCCTAGCTAA),0.00248
5,AGCCTACCATGGACCGGTTTTCCCGGTAATCCGTATTTGTT (site AGCCTATCTAA),0.00614
6,AGCCTAGCATGGACCGGTTTTCCCGGTAATCCGTATTTGAT (site AGCCTAGCTAA),0.0122
7,AGCCTAGCATGGACCGGTTTTCCCGGTAATCCGTATTTGAT (site AGCCTAGCTAC),0.0164
8,AGCCTAGCATGGACCGGTTTTCCCGGTAATCCGTATTTGAT (site AGCCTAGCTAG),0
9,AGCCTAGCATGGACCGGTTTTCCCGGTAATCCGTATTTGAT (site AGCCTAGCTAT),0.0107
10,AGCCTAGCATGGACCGGTTTTCCCGGTAATCCGTATTTGTA (site AGCCTAGCTAA),0.0136
11,AGCCTAGCATGGACCGGTTTTCCCGGTAATCCGTATTTGTA (site AGCCTAGCTCA),0.0462
12,AGCCTAGCATGGACCGGTTTTCCCGGTAATCCGTATTTGTA (site AGCCTAGCTGA),0
13,AGCCTAGCATGGACCGGTTTTCCCGGTAATCCGTATTTGTA (site AGCCTAGCTTA),0.245
14,AGCCTAGCATGGACCGGTTTTCCCGGTAATCCGTATTTGTC (site AGCCTAGCTAA),0.199
15,AGCCTAGCATGGACCGGTTTTCCCGGTAATCCGTATTTGTC (site AGCCTAGCTCA),0.0312
16,AGCCTAGCATGGACCGGTTTTCCCGGTAATCCGTATTTGTC (site AGCCTAGCTGA),0
17,AGCCTAGCATGGACCGGTTTTCCCGGTAATCCGTATTTGTC (site AGCCTAGCTTA),0.0185
18,AGCCTATCATGGACCGGTTTTCCCGGTAATCCGTATTTGAC (site AGCCTATCTGT),0.685
19,AGCCTATCATGGACCGGTTTTCCCGGTAATCCGTATTTGAC (site AGCCTCTCTGT),0
20,AGCCTATCATGGACCGGTTTTCCCGGTAATCCGTATTTGAC (site AGCCTGTCTGT),0
21,AGCCTATCATGGACCGGTTTTCCCGGTAATCCGTATTTGAC (site AGCCTTTCTGT),0
22,AGCCTTTCATGGACCGGTTTTCCCGGTAATCCGTATTTGAT (site AGCCTTTCTAT),0
23,AGCCTTTCATGGACCGGTTTTCCCGGTAATCCGTATTTGAT (site AGCCTTTCTCT),0
24,AGCCTTTCATGGACCGGTTTTCCCGGTAATCCGTATTTGAT (site AGCCTTTCTGT),0
25,AGCCTTTCATGGACCGGTTTTCCCGGTAATCCGTATTTGAT (site AGCCTTTCTTT),0
26,AGCGCGACATGGACCGGTTTTCCCGGTAATCCGTATTTGTG (site AGCGCGACTCA),0.829
